The test system of the first assay is Caenorhabditis elegans. The assay is described as follows: C. elegans L1 nematicidal dose response in 96-well plates, 5 day visual score (Example 2; same procedure for Example 7, Table 3). The settings on record: 0.3 μM, C. elegans L1, scored day 5. Also noted: key to 5 Day Visual Score V1 / 5 Day Visual Score V2 / 5 Day Visual Score V3 / 5 Day Visual Score V4 / 5 Day Visual Score V6 / 5 Day Visual Score V5 / Initial HTS Run Visual Score / Follow-up HTS Run Visual Score: Dead: only stiff L1s (no movement); Dead (L4): worms are dead, but at a later larval stage; majority of worms are L1 (based on size) worms move when plate is tapped; majority of worms are L2 (based on size); majority of worms are L3 (based on size); majority of worms are L4 (based on size); AD: majority of worms are adult; #AD: 5 adult worms or less; B!: sterile (0-25 progeny); B: low broodsize (25-100 progeny); ˜B: moderate broodsize (100-250 progeny); <: reduced broodsize (250-500 progeny); OK: no effect (˜1000+ progeny). The class given is in vivo. The procedure:
Caenorhabditis elegans adults were grown on Nematode Growth Medium (NGM) until they produced eggs, then the adults were removed.
The eggs were allowed to hatch, and the L1 larvae collected. See The Nematode Caenorhabditis elegans (1988) Cold Spring Harbor Laboratory Press. Using a Matrix Programmable Pipette, the L1s were distributed into 96-well tissue culture plates, 20 L1 in 50 μl NGM per well. Antibiotic/Antimyoticwas added to each well, and 1% by weight E. coli strain HB101. The subject anthelmintic compounds were stored at 5 mM in 100% DMSO. 0.7 μl of compounds 1-31 were added to the left-most column of wells to yield a final concentration of 70 μM in 1.4% DMSO, with 1.4% DMSO only as the control. The compounds were then subjected to 5 more 3-fold dilutions from left to right to yield 6 column concentrations of 70 μM, 23.3 μM, 7.8 μM, 2.6 μM, 0.9 μM, and 0.3 μM. Plates were stored in air-tight Rubbermaid plastic boxes at 20° C. The nematodes had cleared all control wells by day 4, and nematode viability was scored by visual examination under a 100× dissecting microsope on day 5. A visual viability scoring system was used as follows:
Column V1 has a compound concentration of 70 μM with sequential 3-fold dilutions reported in columns V2, V3, V4, V5, and V6, respectively, such that the V6 concentration was 0.3 μM.
The nematicidal activity of anthelmintic Compositions 48-168 were determined in accordance with the procedure outlined in Example 2.
`CCCCOc1ccc(C(=O)N2CC(OCCCc3ccccc3)CC2C(=O)NCc2ccccc2Br)cc1` (centres unmarked) [AKC 102]: the “5 Day Visual Score V6” value is listed as “B (low broodsize (25-100 progeny))”.

Turning to `CCCCOc1ccc(-c2noc(C3CCC(NC(=O)c4ccc5c(c4)OCO5)CC3)n2)cc1` (centres unmarked) [AKC 103], the “5 Day Visual Score V6” value is on record as “< (reduced broodsize (250-500 progeny))”.

`O=C(Nc1ccc(OC(F)(F)F)cc1)NC1CCC(c2nc(-c3ccccc3)no2)CC1` (centres unmarked) [AKC 107]: the “5 Day Visual Score V6” value is listed as “L2/Dead(L”.

For `O=C(NCCc1ccccc1F)C1C(c2ccccc2Cl)=NOC1c1ccc(-c2ccccc2)cc1` (centres unmarked) [AKC 110], the “5 Day Visual Score V6” value is given as “L1”.

Regarding `COc1ccccc1-c1noc(C(C)CNC(=O)Nc2ccc(OC(F)(F)F)cc2)n1` (centres unmarked) [AKC 111], the “5 Day Visual Score V6” value is on record as “OK (no effect (˜1000+ progeny))”.

As for `Cc1ccc(-c2noc(C3CCC(CNC(=O)Nc4ccc(OC(F)(F)F)cc4)CC3)n2)cc1C` (centres unmarked) [AKC 112], the “5 Day Visual Score V6” value is listed as “OK (no effect (˜1000+ progeny))”.

Turning to `O=C(NCC1CCC(c2nc(-c3ccccc3)no2)CC1)Nc1ccc(OC(F)(F)F)cc1` (centres unmarked) [AKC 113], the “5 Day Visual Score V6” value is listed as “L4/#AD/B”.

In the case of `O=C(Nc1ccc(Br)cc1)NC1CCC(c2nc(-c3ccccc3)no2)CC1` (centres unmarked) [AKC 114], the “5 Day Visual Score V6” value is given as “˜B (moderate broodsize (100-250 progeny))”.

For the compound `O=C(NCCc1ccc(F)cc1)C1C(c2ccccc2Cl)=NOC1c1ccc(-c2ccccc2)cc1` (centres unmarked) [AKC 119], the “5 Day Visual Score V6” value is given as “< (reduced broodsize (250-500 progeny))”.

For `CC(C)(C)C1=NOC(c2ccc(-c3ccccc3)cc2)C1C(=O)NCCc1ccccc1F` (centres unmarked) [AKC 120], the “5 Day Visual Score V6” value was “OK (no effect (˜1000+ progeny))”.

Turning to `CCOc1ccc(C2ON=C(c3ccc(F)cc3)C2C(=O)NCCc2ccc(F)cc2)cc1` (centres unmarked) [AKC 122], the “5 Day Visual Score V6” value was “OK (no effect (˜1000+ progeny))”.

As to `CCOc1ccc(C2ON=C(c3ccc(N(C)C)cc3)C2C(=O)NCCc2ccc(F)cc2)cc1` (centres unmarked) [AKC 123], the “5 Day Visual Score V6” value is listed as “#AD/˜B”.

The assay is the same for the next values; noted with them: 0.9 μM, C. elegans L1, scored day 5.
With `CCCCOc1ccc(-c2noc(C3CCC(NC(=O)c4ccc5c(c4)OCO5)CC3)n2)cc1` (centres unmarked) [AKC 103], the “5 Day Visual Score V5” value is “L4/#AD/B”.

Turning to `O=C(NCCc1ccccc1F)C1C(c2ccccc2Cl)=NOC1c1ccc(-c2ccccc2)cc1` (centres unmarked) [AKC 110], the “5 Day Visual Score V5” value is “L1”.

`Cc1ccc(-c2noc(C3CCC(CNC(=O)Nc4ccc(OC(F)(F)F)cc4)CC3)n2)cc1C` (centres unmarked) [AKC 112]: the “5 Day Visual Score V5” value was “#AD/˜B”.

On to `CC(C)(C)C1=NOC(c2ccc(-c3ccccc3)cc2)C1C(=O)NCCc1ccccc1F` (centres unmarked) [AKC 120], for which the “5 Day Visual Score V5” value was “#AD/˜B”.

Still in this assay, the particulars now being: 2.6 μM, C. elegans L1, scored day 5.
In the case of `CCCCOc1ccc(C(=O)N2CC(OCCCc3ccccc3)CC2C(=O)NCc2ccccc2Br)cc1` (centres unmarked) [AKC 102], the “5 Day Visual Score V4” value is “L3”.

As to `CCCCOc1ccc(-c2noc(C3CCC(NC(=O)c4ccc5c(c4)OCO5)CC3)n2)cc1` (centres unmarked) [AKC 103], the “5 Day Visual Score V4” value was “B (low broodsize (25-100 progeny))”.

`O=C(Nc1ccc(OC(F)(F)F)cc1)NC1CCC(c2nc(-c3ccccc3)no2)CC1` (centres unmarked) [AKC 107]: the “5 Day Visual Score V4” value is reported as “Dead(L4)”.

For the compound `O=C(NCCc1ccccc1F)C1C(c2ccccc2Cl)=NOC1c1ccc(-c2ccccc2)cc1` (centres unmarked) [AKC 110], the “5 Day Visual Score V4” value is recorded as “L1”.

As to `COc1ccccc1-c1noc(C(C)CNC(=O)Nc2ccc(OC(F)(F)F)cc2)n1` (centres unmarked) [AKC 111], the “5 Day Visual Score V4” value is recorded as “Dead(L3/L”.

In the case of `O=C(NCC1CCC(c2nc(-c3ccccc3)no2)CC1)Nc1ccc(OC(F)(F)F)cc1` (centres unmarked) [AKC 113], the “5 Day Visual Score V4” value is given as “Dead(L2/L”.

For `O=C(Nc1ccc(Br)cc1)NC1CCC(c2nc(-c3ccccc3)no2)CC1` (centres unmarked) [AKC 114], the “5 Day Visual Score V4” value was “L3/Dead(L”.

The assay is the same for the next values; noted with them: 7.8 μM, C. elegans L1, scored day 5.
For the compound `CCCCOc1ccc(-c2noc(C3CCC(NC(=O)c4ccc5c(c4)OCO5)CC3)n2)cc1` (centres unmarked) [AKC 103], the “5 Day Visual Score V3” value was “Dead(L4)”.

For `O=C(NCCc1ccccc1F)C1C(c2ccccc2Cl)=NOC1c1ccc(-c2ccccc2)cc1` (centres unmarked) [AKC 110], the “5 Day Visual Score V3” value is “L1”.

For the compound `COc1ccccc1-c1noc(C(C)CNC(=O)Nc2ccc(OC(F)(F)F)cc2)n1` (centres unmarked) [AKC 111], the “5 Day Visual Score V3” value was “L2”.

Consider `O=C(NCC1CCC(c2nc(-c3ccccc3)no2)CC1)Nc1ccc(OC(F)(F)F)cc1` (centres unmarked) [AKC 113], for which the “5 Day Visual Score V3” value is listed as “Dead”.

On to `O=C(Nc1ccc(Br)cc1)NC1CCC(c2nc(-c3ccccc3)no2)CC1` (centres unmarked) [AKC 114], for which the “5 Day Visual Score V3” value is given as “L3”.

Consider `CC(C)(C)C1=NOC(c2ccc(-c3ccccc3)cc2)C1C(=O)NCCc1ccccc1F` (centres unmarked) [AKC 120], for which the “5 Day Visual Score V3” value is given as “L1”.

The same assay, now with this note: 23.3 μM, C. elegans L1, scored day 5.
Regarding `CCCCOc1ccc(-c2noc(C3CCC(NC(=O)c4ccc5c(c4)OCO5)CC3)n2)cc1` (centres unmarked) [AKC 103], the “5 Day Visual Score V2” value was “Dead(L3/L4)”.

As to `O=C(Nc1ccc(OC(F)(F)F)cc1)NC1CCC(c2nc(-c3ccccc3)no2)CC1` (centres unmarked) [AKC 107], the “5 Day Visual Score V2” value is reported as “Dead(L2/L3)”.

Consider `O=C(NCCc1ccccc1F)C1C(c2ccccc2Cl)=NOC1c1ccc(-c2ccccc2)cc1` (centres unmarked) [AKC 110], for which the “5 Day Visual Score V2” value was “L1”.

Consider `COc1ccccc1-c1noc(C(C)CNC(=O)Nc2ccc(OC(F)(F)F)cc2)n1` (centres unmarked) [AKC 111], for which the “5 Day Visual Score V2” value is reported as “Dead”.

On to `O=C(NCC1CCC(c2nc(-c3ccccc3)no2)CC1)Nc1ccc(OC(F)(F)F)cc1` (centres unmarked) [AKC 113], for which the “5 Day Visual Score V2” value was “Dead”.

For the compound `O=C(Nc1ccc(Br)cc1)NC1CCC(c2nc(-c3ccccc3)no2)CC1` (centres unmarked) [AKC 114], the “5 Day Visual Score V2” value is listed as “L3/Dead(L4)”.

Regarding `CCOc1ccc(C2ON=C(c3ccc(F)cc3)C2C(=O)NCCc2ccc(F)cc2)cc1` (centres unmarked) [AKC 122], the “5 Day Visual Score V2” value is on record as “L1”.

The same assay, now with this note: 70 μM, C. elegans L1, scored day 5.
Consider `O=C(Nc1ccc(OC(F)(F)F)cc1)NC1CCC(c2nc(-c3ccccc3)no2)CC1` (centres unmarked) [AKC 107], for which the “5 Day Visual Score V1” value is “Dead”.

Consider `O=C(NCCc1ccccc1F)C1C(c2ccccc2Cl)=NOC1c1ccc(-c2ccccc2)cc1` (centres unmarked) [AKC 110], for which the “5 Day Visual Score V1” value was “L1”.

On to `COc1ccccc1-c1noc(C(C)CNC(=O)Nc2ccc(OC(F)(F)F)cc2)n1` (centres unmarked) [AKC 111], for which the “5 Day Visual Score V1” value is reported as “Dead”.

On to `O=C(NCC1CCC(c2nc(-c3ccccc3)no2)CC1)Nc1ccc(OC(F)(F)F)cc1` (centres unmarked) [AKC 113], for which the “5 Day Visual Score V1” value is recorded as “Dead”.

Turning to `O=C(Nc1ccc(Br)cc1)NC1CCC(c2nc(-c3ccccc3)no2)CC1` (centres unmarked) [AKC 114], the “5 Day Visual Score V1” value is given as “Dead”.

Turning to `CC(C)(C)C1=NOC(c2ccc(-c3ccccc3)cc2)C1C(=O)NCCc1ccccc1F` (centres unmarked) [AKC 120], the “5 Day Visual Score V1” value is reported as “L1”.

Take `CCOc1ccc(C2ON=C(c3ccc(F)cc3)C2C(=O)NCCc2ccc(F)cc2)cc1` (centres unmarked) [AKC 122]: the “5 Day Visual Score V1” value was “Dead”.

With `CCOc1ccc(C2ON=C(c3ccc(N(C)C)cc3)C2C(=O)NCCc2ccc(F)cc2)cc1` (centres unmarked) [AKC 123], the “5 Day Visual Score V1” value was “L1”.

Values taken from patent publication US20020002171A1, “Materials and methods for killing nematodes and nematode eggs” (priority 2000, published 2002).
